Test results taken from ChEMBL document CHEMBL1201862, “PubChem BioAssay data set” (2004).
Calls of active or inactive are those of the source.

How the values were obtained:
[1] = Luminescence Cell-Based Dose Confirmation HTS to Identify Activators of 5'UTR Stem-Loop Driven Alpha-Synuclein mRNA Translation in H4 Neuroglioblastoma Cells. [Related pubchem assays: 1829 (Project Summary), 1814 (Primary HTS)]; format: functional
[2] = Luminescence Cell-Based Dose Response HTS to Identify Activators of Luciferase Translation or Activity in H4 […] Cells. [Related pubchem assays: 1829 (Project Summary), 1814 (Primary HTS)]; format: functional
H4 = assay: Luminescence Cell-Based Dose Response HTS to Identify Activators of 5'UTR Stem-Loop Driven Prion Protein mRNA Translation in H4 Neuroglioblastoma Cells. [Related pubchem assays: 1829 (Project Summary), 1814 (Primary HTS)]; format: functional; details: Homo sapiens
[3] = biological target: T1, Corticotropin-releasing factor receptor 2/Corticotropin-releasing factor-binding protein (Homo sapiens, UniProt P24387+Q13324); assay: activators of CRF receptor 2 with binding protein – uHTS hits, confirmation (AID 602473); format: functional; details: read-out: EC50_Mean
T1 sequence (Q13324 whole entry): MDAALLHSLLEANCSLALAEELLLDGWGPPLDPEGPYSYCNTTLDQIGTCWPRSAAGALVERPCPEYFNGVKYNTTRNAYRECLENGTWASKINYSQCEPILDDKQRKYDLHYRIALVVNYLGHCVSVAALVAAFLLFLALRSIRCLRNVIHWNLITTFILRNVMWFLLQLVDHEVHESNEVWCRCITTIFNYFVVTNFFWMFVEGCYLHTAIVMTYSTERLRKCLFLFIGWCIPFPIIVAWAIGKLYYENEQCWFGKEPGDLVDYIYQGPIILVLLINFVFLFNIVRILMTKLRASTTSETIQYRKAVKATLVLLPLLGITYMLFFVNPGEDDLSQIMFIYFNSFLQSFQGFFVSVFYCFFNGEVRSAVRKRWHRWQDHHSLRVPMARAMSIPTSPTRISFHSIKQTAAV
T1 sequence (P24387 whole entry): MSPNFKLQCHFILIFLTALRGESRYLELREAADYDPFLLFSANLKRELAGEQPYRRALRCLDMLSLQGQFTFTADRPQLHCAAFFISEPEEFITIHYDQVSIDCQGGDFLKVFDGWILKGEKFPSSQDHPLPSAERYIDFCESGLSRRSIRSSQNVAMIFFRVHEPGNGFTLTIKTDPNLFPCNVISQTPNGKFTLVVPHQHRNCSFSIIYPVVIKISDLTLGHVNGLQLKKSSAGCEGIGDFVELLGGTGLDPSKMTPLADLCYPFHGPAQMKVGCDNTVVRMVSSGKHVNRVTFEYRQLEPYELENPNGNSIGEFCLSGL

Cytochrome P450 1A2 = biological target: T2, Cytochrome P450 1A2 (Homo sapiens, UniProt P05177);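 note: PubChem cytochrome P450 panel assay, CYP1A2 panel member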
T2 sequence (P05177 whole entry): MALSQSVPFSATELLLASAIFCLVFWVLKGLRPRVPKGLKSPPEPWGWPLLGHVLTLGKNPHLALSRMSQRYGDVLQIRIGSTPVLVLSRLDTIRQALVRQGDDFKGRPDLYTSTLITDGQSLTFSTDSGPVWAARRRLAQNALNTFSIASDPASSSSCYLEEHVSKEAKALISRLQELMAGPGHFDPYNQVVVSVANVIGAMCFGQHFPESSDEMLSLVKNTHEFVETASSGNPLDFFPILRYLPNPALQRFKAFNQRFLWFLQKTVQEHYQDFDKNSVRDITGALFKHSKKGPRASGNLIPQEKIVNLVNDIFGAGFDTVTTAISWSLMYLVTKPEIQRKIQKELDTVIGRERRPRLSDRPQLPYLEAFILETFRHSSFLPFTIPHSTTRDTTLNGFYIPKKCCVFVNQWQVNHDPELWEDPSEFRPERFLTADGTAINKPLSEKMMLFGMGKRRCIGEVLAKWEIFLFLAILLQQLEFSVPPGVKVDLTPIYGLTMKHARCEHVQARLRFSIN

[4] = biological target: T3, Rac GTPase-activating protein 1 (Homo sapiens, UniProt Q9H0H5); assay: MgcRacGAP GTPase-activating activity inhibitors, confirmation, biochemical, ADP Hunter fluorescence, primary and confirmatory (AID 624330); format: functional
T3 sequence (Q9H0H5 whole entry): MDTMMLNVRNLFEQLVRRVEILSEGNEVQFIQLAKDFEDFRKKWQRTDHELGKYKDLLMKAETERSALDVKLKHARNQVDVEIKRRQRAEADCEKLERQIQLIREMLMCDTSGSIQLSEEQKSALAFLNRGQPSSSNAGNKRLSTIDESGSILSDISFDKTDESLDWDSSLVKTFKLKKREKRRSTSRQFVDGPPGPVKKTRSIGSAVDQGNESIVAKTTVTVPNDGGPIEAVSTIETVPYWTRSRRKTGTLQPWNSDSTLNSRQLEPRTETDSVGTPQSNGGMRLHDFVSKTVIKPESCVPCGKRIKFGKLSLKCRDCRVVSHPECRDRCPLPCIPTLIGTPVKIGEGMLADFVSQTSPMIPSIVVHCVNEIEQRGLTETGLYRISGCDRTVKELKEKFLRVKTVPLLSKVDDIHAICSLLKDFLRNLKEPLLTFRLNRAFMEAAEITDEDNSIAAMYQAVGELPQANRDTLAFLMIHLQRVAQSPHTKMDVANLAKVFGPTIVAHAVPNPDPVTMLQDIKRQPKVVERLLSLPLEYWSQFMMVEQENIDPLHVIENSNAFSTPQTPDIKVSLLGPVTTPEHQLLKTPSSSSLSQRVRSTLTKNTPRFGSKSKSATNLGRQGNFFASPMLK

Cytochrome P450 3A4 = Cytochrome P450 3A4 (Homo sapiens, UniProt P08684);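 note: CYP3A4 tested as one member of a cytochrome P450 panel screen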
Chain of Cytochrome P450 3A4 (P08684 whole entry): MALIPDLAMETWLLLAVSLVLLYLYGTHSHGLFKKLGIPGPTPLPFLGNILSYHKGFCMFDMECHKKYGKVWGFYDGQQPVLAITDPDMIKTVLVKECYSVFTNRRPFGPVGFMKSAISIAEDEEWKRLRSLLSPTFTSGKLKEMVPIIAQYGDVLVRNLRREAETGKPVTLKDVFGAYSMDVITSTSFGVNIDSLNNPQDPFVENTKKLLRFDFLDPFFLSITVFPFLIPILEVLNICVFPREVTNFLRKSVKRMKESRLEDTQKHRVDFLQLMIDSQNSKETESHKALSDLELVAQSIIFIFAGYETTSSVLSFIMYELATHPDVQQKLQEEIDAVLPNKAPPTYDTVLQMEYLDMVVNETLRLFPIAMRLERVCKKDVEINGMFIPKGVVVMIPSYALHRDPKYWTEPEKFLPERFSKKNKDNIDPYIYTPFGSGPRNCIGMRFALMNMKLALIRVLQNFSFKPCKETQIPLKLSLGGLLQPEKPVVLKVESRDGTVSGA

Cytochrome P450 2C19 = Cytochrome P450 2C19 (Homo sapiens, UniProt P33261); assay: Cytochrome panel assay with activity outcomes. Panel member name: p450-cyp2c19 Compounds with AC50 equal or less than 10 uM are considered active; format: functional; details: read-out: AC50
Chain of Cytochrome P450 2C19 (P33261 whole entry): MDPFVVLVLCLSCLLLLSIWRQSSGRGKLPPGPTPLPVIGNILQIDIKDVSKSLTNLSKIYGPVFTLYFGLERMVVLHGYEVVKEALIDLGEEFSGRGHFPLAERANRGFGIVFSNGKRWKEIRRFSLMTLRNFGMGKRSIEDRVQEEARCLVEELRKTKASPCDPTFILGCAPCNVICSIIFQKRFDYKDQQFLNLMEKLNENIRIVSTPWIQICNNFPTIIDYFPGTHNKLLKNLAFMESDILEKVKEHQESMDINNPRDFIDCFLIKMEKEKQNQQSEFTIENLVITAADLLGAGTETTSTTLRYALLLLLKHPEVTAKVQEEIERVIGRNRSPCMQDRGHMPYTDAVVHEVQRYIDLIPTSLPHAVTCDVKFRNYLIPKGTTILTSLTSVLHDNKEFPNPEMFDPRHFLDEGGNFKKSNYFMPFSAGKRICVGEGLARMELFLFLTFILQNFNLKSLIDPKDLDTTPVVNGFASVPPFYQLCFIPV

Cytochrome P450 2D6 = Cytochrome P450 2D6 (Homo sapiens, UniProt P10635);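 note: CYP2D6 member of a cytochrome P450 panel assay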
Chain of Cytochrome P450 2D6 (P10635 whole entry): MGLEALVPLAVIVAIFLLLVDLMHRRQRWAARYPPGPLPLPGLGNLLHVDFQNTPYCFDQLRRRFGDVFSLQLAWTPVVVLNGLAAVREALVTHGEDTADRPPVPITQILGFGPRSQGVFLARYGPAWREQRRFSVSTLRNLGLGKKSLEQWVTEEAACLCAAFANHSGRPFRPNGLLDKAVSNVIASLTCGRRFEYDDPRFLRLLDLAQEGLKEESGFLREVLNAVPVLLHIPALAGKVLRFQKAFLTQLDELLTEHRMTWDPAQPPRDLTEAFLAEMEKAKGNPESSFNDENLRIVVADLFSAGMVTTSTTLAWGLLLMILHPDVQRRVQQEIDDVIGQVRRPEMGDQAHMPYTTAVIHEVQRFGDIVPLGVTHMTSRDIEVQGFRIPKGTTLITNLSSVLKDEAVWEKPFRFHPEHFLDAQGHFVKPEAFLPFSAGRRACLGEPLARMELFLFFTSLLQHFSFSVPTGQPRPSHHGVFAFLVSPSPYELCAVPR

For `COc1cc(C(C)=O)ccc1OCc1cc(C(=O)N(C)CCC2CCCCO2)no1` (stereo not drawn), the EC50 [1] was 0.831 µM (active), the EC50 [2] was 80.8 µM (active) and the EC50 (H4) was 7.86 µM (active).
In the case of `O=C1NC(=O)C2(N1)C(=O)c1cccc3cccc2c13` (stereo not drawn), the EC50 [3] is reported as 8.84 µM (active).
In the case of `CCC/C=C(\CCC)C(NS(=O)(=O)c1cccc2cccnc12)c1ccc(C(=O)OC)cc1` (stereo not drawn), the AC50 (Cytochrome P450 1A2) is reported as 6.31 µM (inconclusive).
With `CC(=O)Nc1nnc(S)s1` the IC50 [4] was 66.2 µM (active).
In the case of `CN(Cc1ccsc1)C(=O)Cn1cc(Br)ccc1=O`, the EC50 [1] is reported as > 120 µM (not active), the EC50 [2] is reported as 8.64 µM (active) and the EC50 (H4) is reported as 31.7 µM (active).
For `COc1cc(NC(=O)c2ccccc2)c(OC)cc1NC(=O)CN1CCN(c2ccccn2)CC1`, the AC50 (Cytochrome P450 1A2) was 25.1 µM (inconclusive) and the AC50 (Cytochrome P450 3A4) was 12.6 µM (inconclusive).
In the case of `CCOc1cc(CN2CCN(C(=O)CC(C)C)CC2)ccc1OC`, the IC50 [4] is reported as 155 µM (active).
For `Cc1[nH]c2ccccc2c1C(=O)CN1CCCCC1C` (stereo not drawn), the EC50 [3] was 9.87 µM (active).
With `CCO[C@H]1O[C@@H]([C@H](COCc2ccccc2)OCc2ccccc2)[C@@H](OCc2ccccc2)[C@H]1O` the AC50 (Cytochrome P450 2C19) was 5.01 µM (inconclusive), the AC50 (Cytochrome P450 2D6) was 15.8 µM (inconclusive) and the AC50 (Cytochrome P450 1A2) was 12.6 µM (inconclusive).
For `COC(=O)c1ccccc1NS(=O)(=O)c1ccc2c3c(cccc13)C(=O)N2`, the AC50 (Cytochrome P450 2D6) was 28.2 µM (inconclusive), the AC50 (Cytochrome P450 1A2) was 15.8 µM (inconclusive) and the AC50 (Cytochrome P450 3A4) was 12.6 µM (inconclusive).
With `Cn1c(SCC(=O)N/N=C/c2cc([N+](=O)[O-])ccc2O)nnc1-c1ccccc1` the EC50 [3] was > 53 µM (inactive).
In the case of `CCN(CC)CCSc1nnc2c3ccccc3n(CCc3ccccc3)c2n1`, the EC50 [1] is reported as > 120 µM (not active), the EC50 [2] is reported as 16.1 µM (active) and the EC50 (H4) is reported as > 120 µM (not active).
In the case of `Cc1cc(Cc2cc(C)c(N)cc2N)c(N)cc1N`, the AC50 (Cytochrome P450 1A2) is reported as 2 µM (inconclusive).
In the case of `COc1ccc(/C=C2\SC(=O)N(CCNC(=O)Cc3coc4cc(OC)ccc34)C2=O)cc1`, the EC50 [1] is reported as 23.4 µM (active), the EC50 [2] is reported as 11.5 µM (active) and the EC50 (H4) is reported as 10.4 µM (active).
With `O=[N+]([O-])c1cc([N+](=O)[O-])c2nonc2c1Nc1ccccc1O` the IC50 [4] was 76.9 µM (active).
In the case of `Cc1ccc(-c2nnc(SCC#CCOC(=O)c3cccs3)o2)cc1`, the EC50 [1] is reported as 8.34 µM (active), the EC50 [2] is reported as 37.3 µM (active) and the EC50 (H4) is reported as 13.8 µM (active).
With `O=S(=O)(c1cccc(-c2nnc(SCc3nc4ccccc4s3)o2)c1)N1CCOCC1` the EC50 [1] was 5.25 µM (active), the EC50 [2] was 21.4 µM (active) and the EC50 (H4) was > 120 µM (not active).
For `Nc1ccc2c(c1Br)Cc1ccccc1-2`, the IC50 [4] was 43.8 µM (active).
For `Cc1nn(-c2ccccc2)c(C)c1C(=O)OCC(=O)N(C)C1CCS(=O)(=O)C1` (stereo not drawn), the EC50 [1] was 0.313 µM (active) and the EC50 [2] was 12.5 µM (active).
With `CC(=O)COc1ccc2c3c(c(=O)oc2c1C)CCCCC3` the EC50 [1] was 28.8 µM (active), the EC50 [2] was 38.4 µM (active) and the EC50 (H4) was > 120 µM (not active).
In the case of `COC(=O)[C@H](C)[C@@H]1C[C@@]1(C)[C@@H](NC(=O)OCc1ccccc1)c1ccccc1`, the AC50 (Cytochrome P450 1A2) is reported as 15.8 µM (inconclusive).
For `CCOC(=O)C1(CCc2ccccc2)CCN(C(=O)CCn2cncn2)CC1`, the EC50 [1] was 28.8 µM (active), the EC50 [2] was 12 µM (active) and the EC50 (H4) was 7.67 µM (active).
In the case of `COCCn1c(=O)c(-c2ccc(OC)cc2)nc2cnc(Nc3cccc(OC)c3)nc21`, the AC50 (Cytochrome P450 1A2) is reported as 10 µM (inconclusive) and the AC50 (Cytochrome P450 3A4) is reported as 5.01 µM (inconclusive).
With `Cn1nc(C(F)(F)F)c(C(=O)Nc2ccc(F)cc2F)c1Sc1cccc(C(F)(F)F)c1` the AC50 (Cytochrome P450 2D6) was 20 µM (inconclusive) and the AC50 (Cytochrome P450 1A2) was 15.8 µM (inconclusive).
For `Cc1ccc(/C=C2\SC(N3CCCCC3)=NC2=O)cc1`, the EC50 [1] was 53.1 µM (active), the EC50 [2] was 10.1 µM (active) and the EC50 (H4) was 45.1 µM (active).
In the case of `O=C(/C=C/c1cccnc1)c1ccc(NC(=O)c2cccc(Br)c2)cc1`, the AC50 (Cytochrome P450 2D6) is reported as 2 µM (inconclusive) and the AC50 (Cytochrome P450 1A2) is reported as 14.1 µM (inconclusive).
In the case of `COc1ccc(NC2CCCN(C(=O)CCN3CCCC3=O)C2)cc1OC` (stereo not drawn), the IC50 [4] is reported as 293 µM (active).
For `Fc1cccc(/C=N/NC(=S)Nc2ccccc2Cl)c1`, the EC50 [1] was 19.6 µM (active), the EC50 [2] was 4.14 µM (active) and the EC50 (H4) was > 120 µM (not active).
With `NCCCCNS(=O)(=O)c1ccc2c(Cl)cccc2c1` the AC50 (Cytochrome P450 2D6) was 31.6 µM (inconclusive), the AC50 (Cytochrome P450 1A2) was 39.8 µM (inconclusive) and the AC50 (Cytochrome P450 3A4) was 25.1 µM (inconclusive).
For `COC(=O)[C@@]1(Cc2ccc(F)cc2)[C@H]2c3cc(C(=O)N4CCCC4)n(Cc4ccc(S(C)(=O)=O)cc4)c3C[C@H]2CN1C(=O)c1ccccc1`, the AC50 (Cytochrome P450 1A2) was 15.8 µM (inconclusive) and the AC50 (Cytochrome P450 3A4) was 1.26 µM (inconclusive).
With `COC(=O)C1C(O)=C(/C=N/c2ccc(N)cc2)C(=O)CC1(C)C` (stereo not drawn) the IC50 [4] was 40 µM (active).
With `Cc1c(C(=O)Nc2nnc(C(F)(F)F)s2)oc2ccccc12` the EC50 [1] was 3.22 µM (active), the EC50 [2] was 6.63 µM (active) and the EC50 (H4) was 72.7 µM (active).
For `O=C(CSc1ccc2ccccc2n1)N/N=C/c1ccc(O)cc1`, the IC50 [4] was 73.2 µM (active).
In the case of `COc1ccc(C(=O)NCc2cc3ccccc3n2C)cc1`, the EC50 [1] is reported as 7.51 µM (active), the EC50 [2] is reported as 12 µM (active) and the EC50 (H4) is reported as 9.84 µM (active).
In the case of `COc1cc(/C=C/C(=O)OCC(=O)N2CCN(S(=O)(=O)c3ccc(C)cc3C)CC2)ccc1O`, the IC50 [4] is reported as 88.2 µM (active).
With `CC(C)(C)c1ccc(C(=O)NCc2ccc(Cl)cc2)cc1` the AC50 (Cytochrome P450 1A2) was 2 µM (inconclusive).
With `CC1Cc2ccccc2N1C(=O)CNCCCN(C)C` (stereo not drawn) the IC50 [4] was 76.9 µM (active).
